# Where two headings read alike, the source gives them in different places.
# Molecular target: T1, CBG (corticosteroid-binding globulin, transcortin) (Sus scrofa, UniProt Q9GK37)
# T1 construct: quantity of cortisol specifically fixed to the glycoproteins adsorbed on the gel; from tissue; host or cells: pig blood plasma (Large White and Meishan, n = 12 each)
# T1 sequence (Q9GK37 23-406): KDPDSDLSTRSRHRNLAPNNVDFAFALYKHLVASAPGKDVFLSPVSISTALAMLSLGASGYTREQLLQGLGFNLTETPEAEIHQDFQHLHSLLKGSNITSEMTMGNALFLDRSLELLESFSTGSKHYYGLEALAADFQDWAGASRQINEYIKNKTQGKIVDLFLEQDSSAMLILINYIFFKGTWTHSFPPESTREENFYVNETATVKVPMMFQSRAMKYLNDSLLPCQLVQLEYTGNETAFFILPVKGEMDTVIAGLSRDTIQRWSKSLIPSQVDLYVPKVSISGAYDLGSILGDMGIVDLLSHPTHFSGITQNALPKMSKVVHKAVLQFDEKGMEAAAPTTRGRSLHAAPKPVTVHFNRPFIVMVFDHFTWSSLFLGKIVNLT
# Assay: solid phase fixation (radiobinding) test of cortisol binding to plasma CBG, Concavalin A-Sepharose, Scatchard analysis
# Parameters: species or system pig
# Details: n = 12, plasma CBG, 4° C., read-out: Kd (affinity of CBG for cortisol)
# Description: The binding capacity of CBG and its affinity for cortisol were measured at 4° C. by a solid phase fixation test using a Concavalin A-Sepharose column (Pugeat et al., 1984). The association equilibrium constant (Ka) and the capacity of CBG for cortisol were calculated by a Scatchard analysis using “bound” as the quantity of cortisol specifically fixed to the glycoproteins adsorbed on the gel and “free” as the concentration of cortisol in the aqueous phase.
# At the protein level, the capacity of binding to cortisol and the affinity constant of CBG were compared between the LW and Meishan pigs by radiobinding studies. No difference in affinity was found between the two breeds of pigs.
structure (smiles),measurement,setting,value
C[C@]12CCC(=O)C=C1CC[C@@H]1[C@@H]2[C@@H](O)C[C@@]2(C)[C@H]1CC[C@]2(O)C(=O)CO [cortisol],Kd,Large White pigs,0.38 ± 0.05 nM
same,Kd,Meishan pigs,0.46 ± 0.05 nM

# From patent US20080115236A1, “CBG gene as a genetic marker of hypercortisolism and associated pathologies” (Institut National de la Recherche Agronomique (INRA), a …, priority 2001, published 2008)
